Data from patent US20060063789A1, “Aminobenzamide derivatives as glycogen synthase kinase 3 beta inhibitors” (priority 2001, published 2006).

Experiments:
[1] = target: GSK3β (Homo sapiens, UniProt P49841); assay: GSK3beta assay (SPA, biotinylated phosphorylated CREB peptide, ATP-P33); type: biochemical; settings: −log IC50 (M); 19 nM GSK3β, 5 μM biotinylated phosphorylated CREB peptide, 1 μM ATP, 25° C., one hour
Procedure: GSK3beta assays were performed at 25° C. in a 100 μl reaction volume of 25 mM Tris (pH 7.4) containing 10 mM MgCl2, 1 mM DTT, 0.1 mg/ml BSA, 5% glycerol and containing 19 nM GSK3β, 5 μM biotinylated phosphorylated CREB peptide, 1 μM ATP, 2 nM ATP-P^33 and a suitable amount of a test compound of formula (I) or (I′). After one hour, the reaction was terminated by adding 70 μl of Stop mix (1 mM ATP, 18 mg/ml streptavidin coated PVT SPA bead pH 11.0). The beads to which the phosphorylated CREB peptide is attached were allowed to settle for 30 minutes and the radioactivity of the beads was counted in a microtiterplate scintillation counter and compared with the results obtained in a control experiment (without the presence of a test compound) in order to determine the percentage of GSK3β inhibition. The IC50 value, i.e. the concentration (M) of the test compound at which 50 % of GSK3β is inhibited, was calculated from the dose response curve obtained by performing the above-described GSK3β assay in the presence of different amounts of the test compound.
Table 4 lists pIC50 values (−log IC50 (M)) obtained in the above-described test for the present compounds.

Chain of GSK3β (P49841 whole entry, species assumed): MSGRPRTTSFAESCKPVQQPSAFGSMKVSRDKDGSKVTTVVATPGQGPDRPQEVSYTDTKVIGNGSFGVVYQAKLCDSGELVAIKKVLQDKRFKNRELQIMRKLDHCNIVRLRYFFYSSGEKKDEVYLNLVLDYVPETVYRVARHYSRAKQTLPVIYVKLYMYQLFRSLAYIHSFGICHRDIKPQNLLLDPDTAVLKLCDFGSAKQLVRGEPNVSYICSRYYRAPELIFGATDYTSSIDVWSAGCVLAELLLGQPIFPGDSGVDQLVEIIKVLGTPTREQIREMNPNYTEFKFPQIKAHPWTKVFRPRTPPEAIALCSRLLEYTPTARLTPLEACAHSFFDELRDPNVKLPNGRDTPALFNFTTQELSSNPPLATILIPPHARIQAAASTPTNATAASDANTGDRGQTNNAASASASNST

SMILES	IC50 [1] [M]	melting point [°C]
NC(=O)c1ccc(Nc2ncc(Br)c(OCc3ccccc3)n2)cc1 [Compound 22, 4-[[5-bromo-4-(phenylmethoxy)-2-pyrimidinyl]amino]-benzamide]	6.46e-08	
NC(=O)c1cccc(Nc2ncc([N+](=O)[O-])c(NCc3ccccc3)n2)c1 [Compound 1]	1.82e-07	
NC(=O)c1cccc(Nc2nccc(OCc3ccccc3)n2)c1 [Compound 17]	1.41e-06	

Continued by falling IC50 [1], values first:

IC50 [1] [M]	melting point [°C]	SMILES
5.25e-08	216 to 217	NC(=O)c1cccc(Nc2ncc(Br)c(OCc3ccccc3)n2)c1 [Compound 4]
2.19e-08		N#Cc1cnc(Nc2ccc(C(N)=O)cc2)nc1OCc1ccccc1 [Compound 23, 4-[[5-cyano-4-(phenylmethoxy)-2-pyrimidinyl]amino]-benzamide]
1.82e-08	260 to 261	N#Cc1cnc(Nc2cccc(C(N)=O)c2)nc1OCc1ccccc1 [Compound 9, 3-[[5-cyano-4-(phenylmethoxy)-2-pyrimidinyl]amino]-benzamide]
